PubChem BioAssay (NCI)
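Protocol summary: plate cells (96-well), add compound at 5 concentrations, incubate 48 h, interpolate endpoints linearly. At the TGI there is no net growth.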 Where a SMILES comes first, the peptide text is derived from it. [ ]: non-standard residue; d: D form. ΔPro = O=C(O)[CH]1C=CCN1

How the values were obtained:
Test in all cases: DTP human tumour cell line panel, 48 h
[1] = test system: 786-0 renal
[2] = test system: BT-549 breast
[3] = test system: CAKI-1 renal
[4] = test system: HCT-116 colon
[5] = test system: HT29 colon
[6] = test system: K-562 leukemia
[7] = test system: M14 melanoma
[8] = test system: NCI-H460 lung
[9] = test system: NCI-H522 lung
[10] = test system: OVCAR-3 ovarian
[11] = test system: OVCAR-8 ovarian
[12] = test system: PC-3 prostate
[13] = test system: SN12C renal
[14] = test system: SNB-75 CNS
[15] = test system: U251 CNS
[16] = test system: UO-31 renal

SMILES	TGI [1]	TGI [2]	TGI [3]	TGI [4]	TGI [5]	TGI [6]	TGI [7]	TGI [8]	TGI [9]	TGI [10]	TGI [11]	TGI [12]	TGI [13]	TGI [14]	TGI [15]	TGI [16]
Cn1nnc2c(C(N)=S)ncn2c1=O	> 100 µM	> 100 µM	> 100 µM	> 100 µM	> 100 µM	> 100 µM	> 100 µM	> 100 µM	> 100 µM	> 100 µM	> 100 µM	> 100 µM	> 100 µM	> 100 µM	> 100 µM	> 100 µM
COC(=O)c1cc(CC2Cc3cc4c(cc3C2=O)CCC4)cc2c1CCC2 (configuration not stated)	> 100 µM	> 100 µM	> 100 µM	> 100 µM	> 100 µM	> 100 µM	> 100 µM	> 100 µM	> 100 µM	> 100 µM	> 100 µM	> 100 µM	> 100 µM	> 100 µM	> 100 µM	> 100 µM
C=C1c2nc3ccccc3n2C=C(c2ccccc2)N1c1ccc(Cl)cc1	20.6 µM	> 66.2 µM	21.6 µM	> 100 µM	> 100 µM	> 100 µM	> 75.2 µM	> 49.4 µM	> 100 µM	59.5 µM	> 93.1 µM	> 100 µM	> 100 µM	19 µM	> 70.3 µM	> 100 µM
O=C1C=C(c2ccccc2)OC1C1Sc2ccccc2NC1=O (configuration not stated)	> 66.3 µM	> 100 µM	> 100 µM	24.6 µM	> 100 µM	> 28.3 µM	35.6 µM	> 20.9 µM	33.8 µM	18.9 µM	> 46.4 µM	> 54.9 µM	68.8 µM	50.3 µM	> 43.3 µM	76.1 µM
O=C(Sc1c(-c2ccccc2)c(=O)n(-c2ccccc2)c(=S)n1-c1ccccc1)c1ccccc1	> 100 µM	> 100 µM	> 100 µM	> 100 µM	> 100 µM	> 100 µM	> 100 µM	> 100 µM	> 100 µM	> 100 µM	> 100 µM	> 100 µM	> 100 µM	88.2 µM	> 100 µM	> 100 µM
C/C(=N\NC(=O)c1ccncc1)c1sc(-n2nc(-c3ccccc3)cc2-c2ccccc2)nc1C	> 31.6 µM	> 31.6 µM	> 100 µM	> 31.6 µM	> 100 µM	> 100 µM	> 31.6 µM	> 31.6 µM	> 80.5 µM	> 31.6 µM	> 100 µM	> 31.6 µM	> 100 µM	> 100 µM	> 31.6 µM	> 31.6 µM
COC(=O)/C=C/CCC#Cc1ccccc1C#CCC/C=C/C(=O)OC	53.2 µM	> 100 µM	10.1 µM	> 100 µM	40.4 µM	4.86 µM	> 100 µM	> 100 µM	18.6 µM	28.2 µM	26 µM	> 100 µM	55.7 µM	19 µM	> 100 µM	> 100 µM
C=C(C)C1CC[C@@](C)(O)[C@H](C#N)C1 (some centres not stated)	> 100 µM	> 100 µM	> 100 µM	> 100 µM	> 100 µM	> 100 µM	> 100 µM	> 100 µM	> 100 µM	> 100 µM	> 100 µM	> 100 µM	> 100 µM	> 100 µM	> 100 µM	> 100 µM
C/C=C/c1cc2c(cc1O)CC[C@@H]1[C@@H]2CC[C@]2(C)[C@@H](O)CC[C@@H]12	13.8 µM	22.8 µM	21.1 µM	5.17 µM	20.4 µM	15.7 µM	4.05 µM	14.3 µM	0.117 µM	2.24 µM	18.1 µM	23 µM	20.5 µM	3.48 µM	13 µM	18.5 µM
CC(=O)OCC1(C)C(O)CCC2(C)C1CCC1CC3CC12CCC3(O)CO (configuration not stated)	> 100 µM	> 100 µM	> 100 µM	> 100 µM	> 100 µM	> 100 µM	> 100 µM	> 100 µM	> 100 µM	> 100 µM	> 100 µM	> 100 µM	> 100 µM	> 100 µM	> 100 µM	> 100 µM
O=C(O)C1C=CCN1C(=O)C1C=CCN1C(=O)C1C=CCN1 (configuration not stated) (H-[ΔPro]-[ΔPro]-[ΔPro]-OH; configuration not given here)	> 100 µM	> 100 µM	> 100 µM	> 100 µM	> 100 µM	> 100 µM	> 100 µM	> 100 µM	> 100 µM	> 100 µM	> 100 µM	> 100 µM	> 100 µM	> 100 µM	> 100 µM	> 100 µM
N#Cc1c(Cl)cc(C#N)n2c1nc1ccccc12	7.08 µM	18.4 µM	16.7 µM	12.8 µM	21.4 µM	21.1 µM	22.2 µM	35.4 µM	5.69 µM	10.7 µM	21 µM	32.6 µM	38.6 µM	38.7 µM	36 µM	19 µM
CSC1=NN(C(C)=O)C(C(OC(C)=O)C(OC(C)=O)C(OC(C)=O)C(COC(C)=O)OC(C)=O)S1 (configuration not stated)	> 100 µM	> 100 µM	> 100 µM	> 100 µM	> 100 µM	> 100 µM	> 100 µM	> 100 µM	> 100 µM	> 100 µM	> 100 µM	> 100 µM	> 100 µM	> 100 µM	> 100 µM	> 100 µM
CCCCCCCCOC(=O)C12Oc3ccc(-c4ccc5c(c4O)C(O)=C4C(=O)CC(C)C(O)C4(C(=O)OCCCCCCCC)O5)c(O)c3C(O)=C1C(=O)CC(C)C2O (configuration not stated)	> 100 µM	41.9 µM	64.3 µM	> 100 µM	> 100 µM	17.4 µM	> 100 µM	> 100 µM	48.2 µM	> 100 µM	35 µM	> 100 µM	> 100 µM	25.5 µM	27.5 µM	92.2 µM
CC1=NN(c2ccc(S(=O)(=O)O)cc2)C2(C1)C(Cl)C(=O)N2c1nc2ccccc2s1 (configuration not stated)	> 100 µM	> 100 µM	> 100 µM	> 100 µM	> 100 µM	> 100 µM	> 100 µM	> 100 µM	> 100 µM	> 100 µM	> 100 µM	> 100 µM	> 100 µM	> 100 µM	> 100 µM	> 100 µM
CN(C)c1ccc(C=Nc2ccc(-c3nc4ccccc4s3)cc2)cc1	42.8 µM	> 100 µM	> 100 µM	> 100 µM	> 100 µM	> 100 µM	> 100 µM	93.2 µM	51.2 µM	57.6 µM	> 100 µM	71.5 µM	> 100 µM	80.9 µM	> 100 µM	> 100 µM
COc1ccc(-c2sc(Br)c3c2C(=O)C2OC(=O)NC32)cc1OC (configuration not stated)	> 100 µM	> 100 µM	> 100 µM	> 100 µM	> 100 µM	> 100 µM	> 100 µM	> 100 µM	> 100 µM	> 100 µM	> 100 µM	> 100 µM	> 100 µM	> 100 µM	> 100 µM	> 100 µM
COC(=O)[C@@H]1C[C@@H](O)CN1C(=O)c1ccc([N+](=O)[O-])cc1[N+](=O)[O-]	> 100 µM	> 100 µM	> 100 µM	> 100 µM	> 100 µM	> 100 µM	> 100 µM	> 100 µM	> 100 µM	> 100 µM	> 100 µM	> 100 µM	> 100 µM	> 100 µM	> 100 µM	> 100 µM
CCN(CC)C1Oc2cc3c(cc2C(c2cc(OC)c(O)c(OC)c2)C1C)OCO3 (configuration not stated)	29.1 µM	> 100 µM	> 72.9 µM	18.2 µM	22.2 µM	17.4 µM	20.4 µM	20.6 µM	11 µM	25.9 µM	38.8 µM	> 75.1 µM	36.7 µM	23.9 µM	26.6 µM	> 100 µM
Cc1cc(N2CCOCC2)nc2ccc(Cc3ccc4nc(N5CCOCC5)cc(C)c4c3)cc12	> 100 µM	> 100 µM	> 100 µM	54.7 µM	49.3 µM	> 100 µM	> 100 µM	> 100 µM	> 100 µM	> 100 µM	> 100 µM	> 100 µM	> 100 µM	> 100 µM	88.5 µM	> 100 µM
COc1ccccc1-n1nnc2c(N)nc(N)nc21	> 100 µM	> 100 µM	> 100 µM	> 100 µM	> 100 µM	> 100 µM	> 100 µM	> 100 µM	> 100 µM	> 100 µM	> 100 µM	> 100 µM	> 100 µM	> 100 µM	> 100 µM	> 100 µM
O=S1SC(=S)C2C=CC=NC21 (configuration not stated)	27.6 µM	33.9 µM	> 100 µM	26.6 µM	30.8 µM	> 100 µM	29.6 µM	37.8 µM	53 µM	56.2 µM	79 µM	30.5 µM	28.8 µM	34.9 µM	35.1 µM	28.4 µM
